# From patent publication US10327423B2, “Antimicrobial compounds and compositions, and uses thereof” (Akeso Biomedical, Inc., priority 2014, dated 2019)
# Entries after “also recorded” stand apart in the source; their conditions may differ.
# How the values were obtained:
# [1] = tested on: Campylobacter jejuni NCTC 11168 (wildtype and strain carrying a kanamycin resistance gene); assay: Patch test on growth plates with Fe-QA and kanamycin; format: cell-based
# Text: The wildtype C. jejuni grew normally, and was not affected by FeQ. A patch was also immersed in a solution of kanamycin and Fe-QA, and placed on a growth plate of wildtype C. jejuni. The growth of C. jejuni was impacted showing that wildtype C. jejuni is sensitive to the presence of kanamycin.
# The patch experiments were repeated with a Campylobacter jejuni NCTC 11168 strain carrying a kanamycin resistance gene wherein patches were immersed in (i) kanamycin only, (ii) Fe-QA only, and (iii) kanamycin and Fe-QA. The growth of the C. jejuni strain carrying the kanamycin resistance gene was not impacted by the patches immersed in (i) kanamycin and (ii) Fe-QA, however, the growth was impacted by the patch that was immersed in both kanamycin and Fe-QA.
# [2] = tested on: Enteropathogenic E. coli (EPEC) E2348/69; assay: Crystal violet assay of attachment to plastic wells; format: cell-based, Escherichia coli; conditions: FeQ 100 μM; 48 hours at 37° C.
# Experimental: (§1) Enteropathogenic E. coli (EPEC) E2348/69 were grown in wells for 48 hours at 37° C. in the presence of FeQ (100 μM), and in the absence of FeQ (as control). After 48 hours, the wells were washed in order to remove suspended cells. Crystal violet was then added to each well. The wells were then washed to remove excess dye. A mixture of acetone/ethanol was then added to the wells to re-suspend any cells attached to the plastic surface of the wells, and dissolve any dye present. The presence of dye in each well was then quantified by measuring the O.D. at 570 nm.
# as §1, with “FeDOPA (10-250” for “FeQ (100”, “FeDOPA” for “FeQ”
# [3] = tested on: Staphylococcus epidermidis F1513; assay: Biofilm formation on plastic coated UV beads; format: cell-based; conditions: different concentrations of Fe-QA; T=24 h
# Experimental: Bacteria (Enterococcus faecalis NCTC 12697, Staphylococcus epidermidis F1513 and Staphylococcus aureus ATCC 25923) were grown on Brain heart infusion (BHI) passaged to new medium either containing Fe-QA or alone. Growth suspensions were prepared at 0.0001 OD/ml and then allowed to grow at 37° C. under normal atmospheric conditions for 24 h in BHI with plastic coated UV beads (Lascells). […], 10 μl suspension was serially diluted 10 fold to 10-3, 10-4, 10-5, 10-6, 10-7, 10-8. For each dilution, 10 μl was spotted on BHI agar plates and colonies counted after 24 h. The beads were also removed washed in PBS before adding to 1 ml PBS. After vortex mixing, 10 μl of the cell suspension was serially diluted as above and cell counts carried out.
# The effect of Fe-QA on biofilm formation by S. epidermidis F1513 was tested as described in the materials and methods of Example 1.
# [4] = tested on: Enteropathogenic E. coli (EPEC) strain E2348/69; assay: Growth curve of antibiotic resistant EPEC with gentamicin and Fe complex; format: cell-based, Escherichia coli; conditions: for rate of growth relative to gentamicin alone: gentamicin 1.25 μM and FeQ 10 to 100 μM
# Experimental: The impact on the growth curve of antibiotic resistant Enteropathogenic E. coli (EPEC) strain E2348/69 (genotype Wild Type EPEC O17:H6) when grown in the presence of (i) gentamicin (1.25 μM), (ii) Fe-Tyr (100 μM), (iii) gentamicin (1.25 μM) and Fe-Tyr (1.25 μM), and (iv) a control with no gentamicin or Fe-Tyr present was determined.
# (§2) The impact on the growth curve of antibiotic resistant Enteropathogenic E. coli (EPEC) strain E2348/69 (genotype Wild Type EPEC O17:H6) when grown in the presence of a fixed concentration of gentamicin (1.25 μM) and an increasing concentration of FeQ versus the strain grown in the presence of only FeQ or only gentamicin, was determined.
# as §2, with “FeDOPA” for “FeQ”
# [5] = tested on: Uropathogenic E. coli UPEC-536; assay: Planktonic growth rate in RPMI-1640; format: cell-based, Escherichia coli; conditions: Fe-QA 100 μM, 24 hours
# Experimental: The growth rate of Uropathogenic E. coli UPEC-536 in RPMI-1640 media over a period of 24 hours was compared to the growth rate of UPEC in RPMI-1640 media, but in the presence of 100 μM Fe-QA. The growth rate of Pseudomonas aeruginosa in RPMI-1640 media was also compared to the growth rate of Pseudomonas aeruginosa in RPMI-1640 media, but in the presence of 100 μM Fe-QA.
# [6] = tested on: mixed population of clinical isolates (PAO Mixed); assay: Growth (OD600) in LB with Amikacin, tolerance to antibiotic; format: cell-based, Pseudomonas aeruginosa; conditions: 34, 100, 200 and 340 μM of FeQ or FePhe; Amikacin 10 µg/ml; 17.5 hours at 37° C.
# Experimental: (§3) To investigate effects upon antibiotic resistance, a laboratory strain of Psuedomonas aeruginosa (PAO1N) and a mixed population of clinical isolates (PAO Mixed) were incubated in Luria-Bertani (LB) media alone, or with different concentrations (34 μM, 100 μM, 200 μM and 340 μM) of FeQ or FePhe.
# (§4) Each of the different media, bar one control, contained 10 µg/ml of the aminoglycoside antibiotic Amikacin.
# (§5) 10 μl of the bacterial strains were added into each well of a 96-well micro-titer plate, before 290 μl of the relevant media was added to wells. Each different condition was repeated in sextuplicate.
# (§6) The plate was incubated at 37° C. within a micro-titer plate reader for 17.5 hours, with the OD600 read every 30 minutes.
# [7] = tested on: Psuedomonas aeruginosa (PAO1N); assay: as above; format: cell-based, Pseudomonas aeruginosa; conditions: 34, 100, 200 and 340 μM of FeQ or FePhe; Amikacin 10 µg/ml; 17.5 hours at 37° C.
# Experimental: as §3, §4, §5, §6
smiles,measurement,setting,value
"O=C1[O][Fe]23([O]C(=O)[C@]4(C[C@@H](O)[C@H](O)[C@H](O)C4)[O]2)([O]C(=O)[C@]2(C[C@@H](O)[C@H](O)[C@H](O)C2)[O]3)[O][C@@]12C[C@@H](O)[C@H](O)[C@H](O)C2 [FeQ, a complex of quinic acid with Fe III]",growth on plate around patch,"[1]; strain carrying kanamycin resistance gene, patch with Fe-QA only",not impacted
same,growth on plate around patch,"[1]; strain carrying kanamycin resistance gene, patch with kanamycin and Fe-QA",retarded; also recorded: impacted
same,growth on plate around patch,"[1]; wildtype C. jejuni (no kanamycin resistance gene), patch with Fe-QA alone",not affected
same,growth on plate around patch,"[1]; wildtype C. jejuni, patch with kanamycin and Fe-QA",impacted
same,"attachment of EPEC cells to plastic well surface and biofilm formation (crystal violet, O.D. 570 nm)",[2],little or no attachment of bacterial cells to the surface and no biofilm formation
same,biofilm formation on plastic coated UV beads,[3],inhibited
same,growth rate,"[4]; FeQ alone, 10 μM to 100 μM",did not impact the growth rate
same,rate of growth relative to gentamicin alone,[4],inhibited
same,rate of growth relative to gentamicin alone,[4]; listed as Fe-QA,loses its resistance
same,planktonic growth rate,[5],does not inhibit the growth
same,tolerance to the aminoglycoside Amikacin (OD600 growth),[6],reducing tolerance
same,tolerance to the aminoglycoside Amikacin (OD600 growth),[7],reducing tolerance
